According to patent publication US12697313B2, “Methods of treating anemia using formoterol or a pharmaceutically acceptable salt thereof” (Dana-Farber Cancer Institute, Inc., priority 2022, dated 2026):
“Also recorded” adds a separate entry of the source.

Columns and labels:
[1] = tested on: phenylhydrazine (PHZ)-mediated stress-induced anemic mice; test: Sublethal PHZ (50 mg/kg)-induced hemolytic anemia, female mice, FF i.p.; type: in vivo
[2] = tested on: phenylhydrazine (PHZ)-treated mice; test: FF/Arf i.p. in PHZ-treated mice at sub-lethal dose of 60 mg/kg; type: in vivo
[3] = tested on: phenylhydrazine (PHZ)-mediated stress-induced anemic mice; test: Sublethal PHZ (60 mg/kg)-induced hemolytic anemia, male mice, FF i.p.; type: in vivo
mitochondrial biogenesis = settings: cited from earlier work
Apcmin mice = test: FF i.p. in Apcmin mice (intestinal adenoma model that develops anemia); type: in vivo
Experimental: This is a mouse model of intestinal adenoma that develops anemia. FF treatment at a low dose of 0.3 mg/kg daily (i.p.) alleviates RBC parameters, such as (FIG. 74A) RBCs (FIG. 74B) hematocrit% (HCT%) and (FIG. 74C) hemoglobin (Hb) in Apcmin mice that spontaneously develop anemia at ~3 months age. * p<0.05, *** p<0.001, 2-way ANOVA. n=5-6 mice per group. Comparisons are shown in between Apcmin+FF versus Apcmin+Veh. Veh: vehicle; LC: littermate control mice.

wild-type C57BL/6J mice [4] = test: FF daily i.p. in wild-type mice at steady-state (pilot study); type: in vivo
Experimental: The murine β2-adrenoreceptor has 87.08% similarity to the protein composition of the human analog. This encouraged further testing to determine whether formoterol fumarate (FF) treatment in wild-type mice under steady state or hemolytic anemia produces any alleviating effect in vivo. To address this, varying doses of FF 0.1-0.3-0.5-1.0 mg/kg or vehicle (0.3% DMSO in saline) were administered via intraperitoneal (i.p.) injection in 10-12 week old wild-type C57BL/6J mice daily for 3 weeks along with weekly submandibular cheek bleeding to analyze complete blood counts (CBC).
C57BL/6J mice were obtained from Jackson laboratories and were housed for at least 2 weeks at the Dana-Farber Cancer Institute (DFCI) animal resources facility before beginning experiments. All drug treatments have been mentioned in detail in the text.

[5] = tested on: cisplatin-treated CKD mice; test: FF i.p. in cisplatin-driven chronic kidney disease (CKD) mice; type: in vivo
Experimental: Comparisons are shown in between cisplatin+FF treated mice as compared to cisplatin+ vehicle treated mice.
FF treatment at a low dose of 0.3 mg/kg 3× weekly (i.p.) alleviates RBC parameters, such as % changes in (FIG. 78A) hematocrit% (HCT%) (FIG. 78B) hemoglobin (Hb) and (FIG. 78C) RBCs in mice with cisplatin-driven CKD. * p<0.05, 2-way ANOVA. n=4-5 mice per group. Comparisons are shown in between cisplatin+FF treated mice as compared to cisplatin+ vehicle treated mice.

[6] = tested on: PHZ-induced lethal hemolytic anemia mice; test: PHZ lethal dose (135 mg/kg), FF oral gavage; type: in vivo; settings: 0.1/0.5 mg/kg o.g.; PHZ 135 mg/kg; FIG. 54
Text: Log-rank (Mantel-Cox) test. n=5 mice per group. All comparisons were done w.r.t. vehicle (DMSO) treated controls.

wild-type C57BL/6J mice [7] = test: Dose-specific effects of FF i.p. daily for 30 days in naive wild-type mice (Example 3); type: in vivo; settings: for monocyte counts: FIG. 85B; for hemoglobin (Hb) levels: FIG. 84A; for RBC parameters (Hb, HCT %, RBC numbers): FIG. 84
Experimental: As described in Example 1 above, formoterol fumarate (FF) treatment of wild-type mice was well-tolerated (FIGS. 14A-14E). The effects of varying doses of FF from 0.1 up to 1.0 mg/kg were evaluated in naive mice without any external stress of phenylhydrazine (PHZ). Specifically, varying doses of FF 0.1-0.3-0.5-1.0 mg/kg or vehicle (0.3% DMSO in saline) were administered via intraperitoneal (i.p.) injection in 10-12 week old wild-type C57BL/6J mice daily for a period of 30 days.

primary human HSPCs = test: Erythroid differentiation liquid culture of primary human HSPCs, flow cytometry; type: cell-based
Experimental: To address this, primary human HSPCs were treated with varying doses of FF (Selleckchem). […] To ascertain if FF administration plays a role further upstream in the erythroid differentiation pathway, methylcellulose colony-formation assays were performed.
CD34+ primary human hematopoietic stem and progenitor cells (HSPCs) were obtained from Fred-Hutchinson Cancer Research center, Seattle, USA and cultured, as previously described. Formoterol fumarate was purchased from Selleckchem (#S2020) and Sigma (#F9552), dissolved (in DMSO) and stored as per manufacturer's instructions, and used at the final working concentrations as indicated.

[8] = 0.1/0.3 mg/kg, PHZ 60 mg/kg, FIG. 26

## COc1ccc(C[C@@H](C)NC[C@H](O)c2ccc(O)c(NC=O)c2)cc1.O=C(O)/C=C/C(=O)O [FF, (E)-but-2-enedioic acid;N-[2-hydroxy-5-[(1R)-1-hydroxy-2-[[(2R)-1-(4-methoxyphenyl)propan-2-yl]amino]ethyl]phenyl]formamide]
[1]; 0.1/0.3 mg/kg daily i.p., female, FIG. 18A
  body weights (absolute and % change): sufficient to revive body weights; also recorded: increases absolute body weights and % change in body weights
[1]; 0.1/0.3 mg/kg, FIG. 18B
  HCT % and RBC counts: produced long-term benefits in elevating HCT % and RBC counts
  Hb production: significantly enhanced Hb production
  RBC parameters (Hb, HCT %, RBC numbers) in peripheral blood: enhances and sustains RBC parameters
[1]; FIG. 18C
  platelet counts: not statistically significant
[1]; day 4 and over 14 days, FIG. 18C
  WBC and monocyte counts: provided an immediate boost to WBC and monocyte counts after PHZ administration, no long term benefits were observed; also recorded: increases WBC and monocyte counts in the peripheral blood after 4 days of daily i.p. injections but does not sustain the impact over 14 days
[2]; 0.3 mg/kg i.p., FIG. 39A
  colony forming unit-erythroid (CFU-e) from BM: enhances colony forming unit-erythroid (CFU-e)
[2]; FIG. 39B
  transferrin receptor expression in CFU-e derived from BMPs: transferrin receptor expression is enhanced
[2]; after 7 and 14 days of i.p., FIG. 35
  Hemoglobin (Hb) in peripheral blood: increase Hemoglobin (Hb)
[2]; after 7 days of i.p., FIG. 34
  RBC parameters (HCT % and RBCs) in peripheral blood: increases RBC parameters
[2]; after 14 days of i.p., FIG. 36A-36B
  LS-K and LSK cells in bone marrow progenitors: increase LSK, LS-K, and mitochondrial activity
[2]; after 14 days of i.p., FIG. 36C
  mitochondrial membrane potential (TMRE staining) in bone marrow progenitors: increase LSK, LS-K, and mitochondrial activity
[2]; after 14 days of i.p., FIG. 37A
  megakaryocyte erythrocyte progenitors (MEP) in BM: increase megakaryocyte erythrocyte progenitors (MEP)
[2]; i.p., PHZ 60 mg/kg, FIG. 32
  body weights: enhances body weights
[2]; i.p., PHZ 60 mg/kg, FIG. 33
  platelets and WBCs in peripheral blood: do not affect platelets and WBCs
[3]; 0.1/0.3 mg/kg i.p., PHZ 60 mg/kg, male, FIG. 22A
  body weights (absolute and % change): marked revival was similarly observed in body weights; also recorded: increases absolute body weights and % change in body weights
[3]; 0.1/0.3 mg/kg, PHZ 60 mg/kg, FIG. 23A
  viability of BM cells: marked increase in viability; also recorded: substantially increases viability
[3]; [8]
  common myeloid progenitors (CMP) and granulocyte monocyte progenitors (GMP) in BM: not affected
  megakaryocyte erythroid progenitors (MEP) in BM: specifically boosted megakaryocyte erythroid progenitors (MEP); also recorded: substantially increases MEP
[3]; 0.1/0.3 mg/kg, PHZ 60 mg/kg, FIG. 27
  megakaryocytic progenitors (MkP) in BM: no stark differences were observed in megakaryocytic progenitors; also recorded: does not affect megakaryocytic progenitors
[3]; Day 4 after PHZ treatment, FIG. 21
  mitochondrial mass in PBMCs (MitoTracker staining): increases MitoTracker® Staining
[3]; FIG. 23B
  mitochondrial biogenesis in BM cells (MitoTracker staining): elevated mitochondrial biogenesis; also recorded: enhances mitochondrial biogenesis
[3]; FIG. 23C
  mitochondrial superoxide production in BM cells (MitoSox staining): reduced mitochondrial superoxide production; also recorded: significantly reduces mitochondrial superoxide production
[3]; FIG. 25
  LS-K cells in the bone marrow: enhances LS-K cells
[3]; FIG. 28
  Pre-CFU-E cells in the BM: selectively enhances Pre-CFU-E cells
[3]; FIG. 29
  pro-erythroblasts in the BM: selectively enhances pro-erythroblasts
[3]; FIG. 41, study not stated in legend
  granulocytic myeloid progenitors (GMP) in bone marrow: does not affect granulocytic myeloid progenitors (GMP)
[3]; PHZ 60 mg/kg, FIG. 22B
  RBC parameters (Hb, HCT %, RBC numbers) in peripheral blood: consistently improved RBC parameters; also recorded: significantly enhances and sustains RBC parameters
[3]; PHZ 60 mg/kg, FIG. 22C
  platelet counts: no long term impact was observed in the WBC parameters or platelets; also recorded: not statistically significant
[3]; day 4 and over 14 days, PHZ 60 mg/kg, FIG. 22C
  WBC and monocyte counts: no long term impact was observed in the WBC parameters or platelets; also recorded: increases WBC and monocyte counts in the peripheral blood after 4 days of daily i.p. injections but does not sustain the impact over 14 days
Mitochondrial biogenesis; Arif et al. 2019
  expression of mtDNA encoded genes: upregulates the expression of mtDNA encoded genes
Mitochondrial biogenesis; in vitro and ex vivo (Arif et al. 2019)
  mitochondrial oxygen consumption rates (OCR): promotes mitochondrial oxygen consumption rates (OCR)
Mitochondrial biogenesis; several in vitro and in vivo models (literature)
  mitochondrial biogenesis: reported to augment mitochondrial biogenesis
Apcmin mice; 0.3 mg/kg daily i.p., FIG. 74
  RBC parameters (RBCs, HCT%, Hb): elevates RBC parameters
Apcmin mice; FIG. 75
  body weight: modestly increases body weight
wild-type C57BL/6J mice [4]; 0.3-0.5 and 1.0 mg/kg daily i.p., FIG. 14A
  body weights: mildly increased body weights of mice, but the values did not reach significance
wild-type C57BL/6J mice [4]; 14 days of daily i.p., FIG. 14C-14E
  RBC parameters (RBC numbers, HCT %, Hb) in peripheral blood: slightly elevated; also recorded: mildly increases RBC parameters
wild-type C57BL/6J mice [4]; 14 days of daily i.p., FIG. 14F-14G
  WBC and monocyte counts in peripheral blood: remained marginally affected; also recorded: does not affect white blood cell (WBC) or monocyte counts
wild-type C57BL/6J mice [4]; all doses, day 14 of daily i.p., FIG. 14B
  mitochondrial biogenesis in PBMCs (MitoTracker staining): significantly enhanced mitochondrial biogenesis; also recorded: enhances mitochondrial biogenesis
wild-type C57BL/6J mice [4]; daily i.p. 0.1-0.3-0.5-1.0 mg/kg
  tolerability (body weights, mobility, activeness, breathing patterns): well-tolerated
[5]; 0.3 mg/kg 3× weekly i.p., FIG. 78
  % changes in RBC parameters (HCT%, Hb, RBCs): rescues anemia
[5]; 0.3 mg/kg 3× weekly i.p., FIG. 79
  absolute values of RBC parameters (Hb, HCT %, RBCs): elevates RBC parameters
[5]; 0.3 mg/kg 3× weekly i.p., FIG. 81A
  terminal erythroid progenitors in the BM: elevates erythroid progenitors
[5]; FIG. 77
  serum BUN and creatinine levels: does not affect serum BUN and creatinine levels
[5]; FIG. 80
  WBCs and platelets: does not affect WBC parameters
[5]; i.p., vs cisplatin+vehicle, FIG. 76
  body weights: significantly rescues (elevates) body weights
[6]
  survival (Kaplan-Meier): confers striking survival benefits
wild-type C57BL/6J mice [7]; 0.1 mg/kg and 1.0 mg/kg
  monocyte counts: but not at the lowest dose (0.1 mg/kg) or highest dose (1.0 mg/kg)
wild-type C57BL/6J mice [7]; 0.1 mg/kg to 0.5 mg/kg
  hemoglobin (Hb) levels: increased with dose
wild-type C57BL/6J mice [7]; 0.3 mg/kg and 0.5 mg/kg, FIG. 84B-84C
  hematocrit (HCT) % and RBC counts: elevated
wild-type C57BL/6J mice [7]; 1.0 mg/kg
  body weights: pronounced increase in body weights
  RBC parameters (Hb, HCT %, RBC numbers): this effect is not observed
  hemoglobin (Hb) levels: no effect was observed
wild-type C57BL/6J mice [7]; 1.0 mg/kg, FIG. 85A
  white blood cell (WBC) count: modestly impacts WBC; also recorded: only marginally affected
wild-type C57BL/6J mice [7]; 0.1-0.5 mg/kg
  body weights: modestly increasing body weights
wild-type C57BL/6J mice [7]; 0.1/0.3/0.5/1.0 mg/kg daily i.p., FIG. 83
  % change in body weights: increases body weights in a dose-dependent manner; also recorded: showed a dose-dependent increase in body-weight
wild-type C57BL/6J mice [7]; 0.3 and 0.5 mg/kg
  RBC parameters (Hb, HCT %, RBC numbers): enhance and sustain RBC parameters
  monocyte counts: modestly impacts monocyte counts; also recorded: marginally affected
wild-type C57BL/6J mice [7]; any dose, FIG. 85C
  platelets: No significant effect was observed
wild-type C57BL/6J mice [7]; lowest doses, FIG. 85A
  white blood count (WBC) numbers: does not influence
Primary human HSPCs; 1/5 μM, n=5 healthy donors, FIG. 2
  erythroid differentiation (CD235a): induces erythroid differentiation (CD235a) dose-dependently
Primary human HSPCs; 1/5 μM, n=5 healthy donors, FIG. 12
  megakaryocytic differentiation (CD41/61): does not influence megakaryocytic differentiation (CD41/61)
Primary human HSPCs; FF from Selleckchem and Sigma, n=4 healthy donors, FIG. 3A-3B
  erythroid differentiation: similarly enhanced erythroid differentiation; also recorded: enhances erythroid differentiation
Primary human HSPCs; control (RIOK2-proficient) HSPCs, FIG. 6B
  erythroid differentiation: consistently enhanced erythroid differentiation in the control HSPCs
Primary human HSPCs; varying doses FF (Selleckchem) vs 0 μM DMSO, n=3 healthy donors, FIG. 1A
  erythroid differentiation (CD235a): elevated erythroid differentiation in primary human HSPCs in a dose-dependent manner; also recorded: enhances erythroid differentiation (CD235a) dose-dependently
Primary human HSPCs; varying doses FF vs DMSO, FIG. 1B
  viability: without affecting viability, megakaryopoiesis or myelopoiesis; also recorded: does not affect viability
Primary human HSPCs; varying doses FF vs DMSO, FIG. 1C
  megakaryocytic (CD41-61) differentiation: without affecting viability, megakaryopoiesis or myelopoiesis; also recorded: does not affect
Primary human HSPCs; varying doses FF vs DMSO, FIG. 1D
  myeloid (CD11b) differentiation: without affecting viability, megakaryopoiesis or myelopoiesis; also recorded: does not affect
